Experiment [1] relates to mice with adenine-induced chronic kidney disease. The experiment can be described thus: adenine diet-induced CKD in mice, 6 weeks: body weight, renal function, mineral metabolism, histology. The format is in vivo, mouse (female CD1). On the procedure:
(§1) FIGS. 1A-1E. […] (A) Study design: Female CD1 mice (n=8/group) were treated with control or 0.2% adenine diet starting at 6 weeks of age along with vehicle or SK-124 (40 mg/kg) treatment by oral gavage once daily. Bottom: body weight of mice in the indicated treatment groups. […] (B, C) After 6 weeks of treatment, the indicated analytes were measured in fasting serum or urine. […] (D) H+E-stained kidney sections were assessed on a blinded basis by a pathologist for tubulointerstitial damage. (E) Whole kidney RNA from the indicated groups was analyzed by RT-qPCR for the indicated proximal tubule marker gene. For all panels in all figures, 1-way ANOVA was performed with Dunnett's posthoc analysis to analyze differences between treatment groups, p values less than 0.05 are shown in graph.
(§2) 7-week-old female CD1 mice were obtained from Charles River Laboratories (Wilmington, MA) and were fed on 0.2% adenine containing diet (TD.130900; 0.2% Adenine, 0.9% Phosphate, 0.5% Calcium; Envigo) or control diet (TD. 96348) for 6 or 8 weeks to induce chronic kidney disease (CKD). Mice were oral gavaged with 40 mg/kg SK-124, or intraperitonially injected with 80 μg/kg PTH, or treated with vehicle 5 days a week for the duration of the special diet.
(§3) For studies with Ubiquitin-Cre^ERt2; Sik2^ff; Sik3^ff mice (JAX #007001 for Ubiquitin-Cre^ERt2: RRID:MGL:5905012 for Sik2 foxed mice; and Sik3^tmla(EUCOMM)Hmgu mice (RRID:MGI:5085429) bred to PGK1 FLPo mice (JAX #011065) in order to generate Sik3 foxed mice), tamoxifen was injected (1 mg, IP, Q48 hours, 3 injections total) in all animals including Cre-negative control littermates housed in cages with Pure-o′Cel bedding at 5 weeks of age. Mice were then fed on 0.2% adenine diet from 6 weeks to 9 weeks of age. Mice were fasted for 6 hours and treated with SK-124 and PTH 4 hours and 2 hours before the sacrifice. Blood and spot urine samples were collected by cheek pouch bleeding and by pipetting urine collected on hydrophobic sand (Labsand; Braintree, MA). Kidneys were immediately snap-frozen in liquid nitrogen for TRIzol (Life Technologies)-Chloroform (Fischer Scientific) based RNA isolation or protein isolation, or fixed in 10% formalin at 4C for 24 hrs for histology. All serum and urine measurements were performed using commercial bioassay detection reagents listed in Table 1, following the manufacturers' instructions. Urine protein levels were measured by Bradford assay and normalized to urine creatinine.

The subject of experiment [2] is intact proximal tubular epithelial genes. The experiment can be described thus: whole kidney RNA RT-qPCR of proximal tubule marker genes, adenine CKD mice. The format is in vivo, mouse. The procedure: as §1, §2, §3
cDNA was prepared using Primescript RT kit (Takara Inc), with 750 ng RNA per reaction. […] Hmbs was used as a control housekeeping gene for mouse samples, and B-Actin was used for organoids, relative expression was calculated (2^-deltaCT method) and compared to the mean of control group if necessary. […]

Experiment [3] deals with whole kidney transcriptome. The experiment can be described thus: bulk RNA-sequencing of whole kidney, adenine CKD mice. The format is in vivo, mouse. To be noted: bulk RNA-seq. On the procedure:
(§4) FIGS. 6A-6F. The effects of SK-124 treatment at the transcriptomic level in adenine-induced mouse chronic kidney disease. RNA-seq was performed on whole kidney RNA samples (n=7/group) from FIG. 1. Volcano plot show gene regulated (>2-fold change, p(adj)<0.05) by CKD (versus control diet, A) or in CKD by SK-124 (versus vehicle control, B). In Volcano plot, representative fibrosis markers (Col3a1, Vim, Serpinel) and proximal tubule integrity (Lrp2. Atplai, and Hnf4a) are shown. Scatterplot (C) and heatmap (D) showing integration of individual RNA-seq comparisons. […] (E) Single cell RNA-sequencing was performed on dissociated kidneys from adenine diet fed mice treated with vehicle or SK-124 (n=4/group). […] (F) Relative cellularity of each annotated cluster is shown in pie chart format for adenine+vehicle (CKD-Veh) or adenine+SK-124 (CKD-SK-124) mice.
Isolated RNA samples from the mouse adenine diet study and human kidney organoid experiment were submitted to Novogene and bulk-RNA sequencing on NovaSeq X Plus Ilumina Novoseq Platform. Sequencing reads were mapped to the mouse reference genome (mm10/GRCm38) or human reference genome (GRCh38/hg38) using Salmon and differential gene expression analysis was performed using DESeq2.

The test system of another experiment is kidney cell clusters. The experiment can be described thus: single cell RNA-sequencing of dissociated kidneys, adenine CKD mice. Type of experiment: in vivo, mouse. Conditions: SK-124 vs vehicle, adenine diet. On the procedure:
as §4
To perform single cell RNA sequencing, mouse kidneys were harvested and immediately dissociated in liberase TH (Millipore Sigma, 05401135001) at 37 degrees for 1 hour at 600 rpm. After removing red blood cells using red blood cell lysis buffer (Sigma, R7757), the cells were further dissociated in Accumax (Stemcell Technologies, 7921) and submitted to MGH Department of Molecular Biology for gel beads in emulsion (GEM) formation and subsequent single cell RNA sequencing using the 10× Genomics Chromium 3′ droplet-based sequencing platform. The CellRanger toolkit (v6.0.2) by 10× Genomics was used to 1) align the sequencing reads to the mouse reference transcriptome (mm10). 2) quantify gene expression, resulting in gene-by-cell UMI count matrices, and 3) aggregate all samples into a single feature barcode matrix containing all the data for downstream analysis. All single cell data analysis was performed in the R software environment for statistical computing and graphics using the package Seurat.

The next experiment relates to SIK2/SIK3. Conditions: reference to WO 2022/031928, Sato et al., Yoon et al., cited from earlier work.
The mark [4] stands for this setting: 0.2% adenine diet, 6 weeks, SK-124 40 mg/kg oral.
Setting [5] is: whole kidney RNA, RT-qPCR, 6 weeks adenine diet.
Setting [6] is: adenine vs control diet, or SK-124 vs vehicle in CKD mice.

Entries after “also recorded” stand apart in the source; their conditions may differ. Like-named read-outs stand apart in the source and are kept apart here.

For `CCc1nnc(-c2c(OC)cc(-c3cnc4cc(-c5cnn(C)c5)ccn34)cc2OC)o1` [SK-124, 2-[2,6-Dimethoxy-4-[7-(1-methylpyrazol-4-yl)imidazo[1,2-a]pyridin-3-yl]phenyl]-5-ethyl-1,3,4-oxadiazole], in experiment [1] (setting [4]), the BUN entry was “reduced”, the creatinine entry is “reduced”, the “cystatin C” value is given as “reduced” and the hyperphosphatemia result is “improved”. Besides, in experiment [1] (setting [4]), the “increased FGF-23” value is reported as “improved”, the proteinuria entry is on record as “reduced” and the secondary hyperparathyroidism entry is recorded as “improved”. Further, the body weight entry in experiment [1] (0.2% adenine diet, 6 weeks, SK-124 40 mg/kg oral gavage once daily, 40 mg/kg) is reported as “CKD-induced weight loss is prevented; also recorded: improved body weight”. Also, the “renal (kidney) function and overall health” value in experiment [1] (0.2% adenine diet, 6 weeks, SK-124 40 mg/kg oral, 40 mg/kg) was “improves renal function; also recorded: dramatic improvements in renal function and overall health; also recorded: restores kidney function”. For the same molecule, the tubule-interstitial damage result in experiment [1] (H+E-stained kidney sections, blinded pathologist) is on record as “reduced tubule-interstitial damage”. For the same molecule, the “CKD-induced changes of analytes in fasting serum or urine” value in experiment [1] (after 6 weeks of treatment, SK-124 40 mg/kg oral) is reported as “All CKD-induced changes were prevented”. Besides, the epithelial cell integrity result in experiment [2] (adenine-induced CKD) is on record as “preserves epithelial cell integrity”. In experiment [2] (setting [5]), the Atpla1 expression result is reported as “restored expression”, the Lrp2 expression entry is recorded as “restored expression” and the Slc34a1 expression result is listed as “restored expression”. In experiment [3] (scatterplot and heat map, SK-124 vs vehicle), the “patterns of dysregulated gene expression in CKD” value is given as “conversely regulated; also recorded: reversed”. For the same molecule, in experiment [3] (setting [6]), the “injury markers (Col3a1, Vim, Serpine1)” value is recorded as “suppressed” and the “markers of intact proximal epithelial cells (Lrp2, Atpla1, Hnf4a) / epithelial cell integrity” value is “preserved expression”. In the experiment with kidney cell clusters, the fibroblast cluster cellularity result is “reduces fibroblast cluster cellularity”; the “injury markers (failed repair proximal tubule cells, fibroblasts, and myofibroblasts)” value is reported as “reduced injury markers”; the “numbers of healthy proximal tubule (epithelial) cells” value is “increases numbers of healthy epithelial cells; also recorded: increased numbers of healthy proximal tubule cells”. Further, the SIK isoform selectivity entry in the experiment on SIK2/SIK3 is listed as “specific SIK2/SIK3 inhibitor; also recorded: SIK2/SIK3-selective inhibitor”. Further, in the experiment with SIK2/SIK3 (listed as SIK-124), the SIK isoform selectivity result is listed as “selective SIK2/SIK3 inhibitor”.

The values are drawn from patent publication US20260306463A1, “SIK INHIBITORS TO TREAT CHRONIC KIDNEY DISEASE” (The General Hospital Corporation, priority 2023, published 2026).
